Source: patent US20090061022A1, “Pharmaceutical composition comprising arsenite for the treatment of malignancy” (priority 2004, published 2009)
Where “and” joins values, the source holds several entries; their conditions need not be identical. Equal entries are not always repeated.

Assays:
[1] = tested on: panel of 9 human cancer cell lines; assay: Cytotoxic activity, whole panel of 9 human cancer cell lines (means, active/total); assay type: cell-based; settings: for Active/Total cancer cell lines / Active/Total cancer cell lines, percent: active = T/C<30
Description: Three kinds of stock solutions were prepared for in vitro cytotoxic activity test. The first solution is DMSO (dimethyl sulfoxide) mixed with sodium meta-arsenite. […] The third solution is DMSO mixed with arsenic acid sodium salt. Those three solutions were diluted with culture medium (RPMI 1640). The final concentrations of DMSO in those three solutions are less than 0.3 vol %.
(§1) Nine kinds of human cancer cell lines out of six kinds of cancers were grown at 37° C. under a controlled atmosphere of 95% air and 5% CO2. The cells were grown on monolayer cultures of RPMI 1640 cell culture medium supplemented with 10% fetal calf serum.
(§2) The grown cells were harvested from exponential phase cultures by trypsinization and counted. The counted cells were placed in a plate, which has ninety six wells. Each well on the plate is in a shape of a flat-bottomed microtitre. Density of the cells in a suspension was adjusted depending on the cell line. The suspension was prepared by diluting the grown cells with the culture medium (RPMI 1640). […] Then add 50 μl of culture medium (RPMI 1640) only to 6 wells, 50 μl/well, among the 96 wells of one plate. It is called controlled. One well is filled with culture medium plus 5-FU. And another 50 μl of culture medium plus one of the stock solutions were added to each of the left 89 wells to allow cells to resume exponential growth.
The cytotoxic activity test was executed with three plates simultaneously to check reliability of the data obtained. The three plates contain the same samples of cancer cells. The three plates were then incubated for 3-7 days under the same controlled atmosphere and cell proliferation was assessed with a modified propodium iodide fluorescence assay. After thawing of the plates, fluorescence was measured using a Millipore Cytofluor 2350-microplate reader (excitation 530 nm emission 620 nm) in order to quantify the total cell number. The assay included untreated and positive controls containing 5-FU.
Growth inhibition is defined as (numbers of cancer cell alive) treated (T)/(number of cells) control (C)×100% (T/C %).

[2] = Maximum tolerated dose assessment after daily oral administration for 14 days in the pig; assay type: in vivo, pigs (large white×landrace×pietrain)
Description: The aims of this study were to establish a MTD and the kinetics of sodium meta-arsenite after repeated administration to pigs.
Sodium meta-arsenite was formulated using enteric-coated capsules (size no. 2) for a toxicology study in pigs. Cellulose-based clear capsules contained 1) sodium meta-arsenite as an active ingredient, 2) microcrystalline cellulose and colloidal silicon dioxide as excipients. The coating material of the capsules comprised of Eudragit L 12.5 (acrylic polymer) and Macrogol 6000 (polyethylene glycol as softener). It is resistant to gastric fluid at least for 1 hour.
The oral route was selected, as it is the intended route of administration in human. Based on previous studies, the following doses were selected: 7.5 and 10 mg/pig (equivalent to 24.5 and 32.5 mg/man). Capsules (enteric coated, size no. 2) of sodium meta-arsenite in concentrations of 7.5 and 10 mg/capsule, formulations, were stored in a refrigerator in the dark. Each dose was administered orally by gavages to groups of 12 male growing pigs (large white×landrace×pietrain) for 14 days, followed by a 14-day recovery period. The mean weight of the pigs was 16.8±2.3 kg at the beginning of the study.
Mortality and viability were checked twice daily, clinical examinations were performed daily and body weight was recorded twice a week. Scheduled termination was performed on day 29 (after 14 days of recovery). Macroscopic examination was performed on all animals and samples from brain (cerebellum, mid brain, cortex), heart, kidney, liver, lung, spleen, stomach wall, small intestine and large intestine taken for histopathology.
Blood samples (10 ml) of both dose groups were collected for hematology and biochemistry analysis on days −2, −1, 0, 7, 14, 21, 28. The samples collected during the treatment period were taken prior to the administration of the next drug. […]

[3] = tested on: panel of 12 human cancer cell lines; assay: Cytotoxic activity, whole panel of 12 human cancer cell lines, modified propidium iodide assay; settings: for times more potent than arsenic acid sodium salt: panel of 12
Description: as §1
as §2, with “1640). Concentration of the cells were varied from 5×10^4 to 1×10^5 viable cells/ml. 100 μl of the suspension was placed in each well of the plate.” for “1640).”
In a further study, the cytotoxic activity profile of sodium meta-arsenite and arsenic acid sodium salt was investigated in different panels containing twelve (12) human cancer cell lines from eight (8) kinds of human cancers. The cancer cell samples were prepared as described in 1-1-B. Propidium iodide fluorescence assay method for this test was modified as the follows.

[4] = mean over human cancer cell lines tested (9 line panel)
[5] = panel of 12 human cancer cell lines, 4 days

For `O=[As][O-].[Na+]` [Sodium meta-arsenite, sodium meta-arsenite], which “Active/Total cancer cell lines” value ([1]; 1 μg/ml) is on record?
Its value is 1/9.

And the “Active/Total cancer cell lines, percent” value ([1]; 1 μg/ml)?
Its value is 11%.

What about the “Active/Total cancer cell lines” value ([1]; 3 μg/ml) of the same compound?
Its value is 2/8.

And the “Active/Total cancer cell lines, percent” value ([1]; 3 μg/ml)?
Its value is 25%.

And the “Active/Total cancer cell lines” value ([1]; 10 μg/ml)?
The value was 3/9.

And the “Active/Total cancer cell lines, percent” value ([1]; 10 μg/ml)?
The value was 33%.

What about the “Active/Total cancer cell lines” value ([1]; 30 μg/ml) of the same compound?
Its value is 4/8.

And the “Active/Total cancer cell lines, percent” value ([1]; 30 μg/ml)?
Its value is 50%.

And the “Active/Total cancer cell lines, percent” value ([1]; 100 μg/ml)?
The value was 89%.

And the “Assessment from comparison of the IC50 values” ([1]; 9 cell line panel)?
The value was “most potent compound of the series”.

What about the IC50 [1, 4] of the same compound?
Its IC50 is 56 µM.

And the IC90 [1, 4]?
The IC90 was 490 µM.

What about the “Mean IC50” value [1, 4] of the same compound?
The value was 7.3 µg/mL.

What about the “Mean IC70” value [1, 4] of the same compound?
The value was 19.8 μg/ml and 152 μM.

What about the “Mean IC90” value [1, 4] of the same compound?
The value was 63.7 µg/mL.

What about the “Hematological and biochemical parameters” value ([2]; 7.5 and 10 mg/pig, 14 days) of the same compound?
Its value is “No (statistical) significant differences”.

What about the Mortality ([2]; 7.5 and 10 mg/pig, enteric-coated capsules, 14 days + 14-day recovery) of the same compound?
The Mortality was “No pigs died or were killed in extremis”.

And the “Drug related side effects” value ([2]; pigs at the doses of 7.5 and 10 mg/day)?
The value was “did not induce any drug related side effects”.

What about the “human cancer cell lines in which active, percent of 12” value ([3]; 1 μg/ml) of the same compound?
The value was 33%.

What about the “human cancer cell lines in which active, percent of 12” value ([3]; dose level 10 μg/ml) of the same compound?
The value was 100%.

And the “human cancer cell lines in which active, percent of 12” value ([3]; dose level 100)?
The value was 100%.

And the “cytotoxic activity in panel of 12” value ([3]; dose level lower than 1 μg/ml)?
The value was “did not display any cytotoxic activity at all”.

And the “times more potent than arsenic acid sodium salt” value ([3]; in μg/ml)?
The value was “over 20 times”.

And the “times more potent than arsenic acid sodium salt” value ([3]; on a molar basis)?
Its value is “approximately 10 times”.

And the “Mean IC50” value [3, 5]?
The value was 0.9 µg/mL.

And the “Mean IC70” value [3, 5]?
The value was 2.0 μg/ml and 15 μM.

And the “Mean IC90” value [3, 5]?
Its value is 6.8 µg/mL.

What about the IC50 ([3]; read-out: Mean IC50, panel of 12 human cancer cell lines, 4 days) of the same compound?
Its IC50 is 7 µM.

And the IC90 ([3]; read-out: Mean IC90, panel of 12 human cancer cell lines, 4 days)?
The IC90 was 52 µM.
